For data set [1], the target named is T1, Neuronal acetylcholine receptor; alpha3/beta2 (Homo sapiens, UniProt P17787+P32297). Kind of data set: Antagonist activity at human alpha3beta2 nAChR expressed in Xenopus laevis oocytes assessed as inhibition of ACh-induced current amplitude at -80 mV holding potential by two-electrode voltage clamp method. It is filed as cell-based, Oocyte.
For data set [2], the target named is T2, Neuronal acetylcholine receptor; alpha4/beta2 (Homo sapiens) (UniProt P17787+P43681). Kind of data set: Antagonist activity at human alpha4beta2 nAChR expressed in Xenopus laevis oocytes assessed as inhibition of ACh-induced current amplitude at -80 mV holding potential at 10 uM by two-electrode voltage clamp method. It is filed as cell-based. The conditions noted are these: Oocyte, filed as antagonist. On the technique in general: Two-electrode voltage clamp holds a large cell at a set potential and records current.

The nature of data set [3]: Antagonist activity at rat alpha9alpha10 nAChR expressed in Xenopus laevis oocytes assessed as inhibition of ACh-induced current amplitude by two-electrode voltage clamp method. The class given is cell-based. The note with it: Oocyte.
Data set [4] has as its target T3, Neuronal acetylcholine receptor; alpha3/beta4 (Homo sapiens) (UniProt P30926+P32297). Kind of data set: Antagonist activity at human alpha3beta4 nAChR expressed in Xenopus laevis oocytes assessed as inhibition of ACh-induced current amplitude at -80 mV holding potential at 10 uM by two-electrode voltage clamp method. The note with it: Oocyte, filed as antagonist. The class given is cell-based.

Data set [5] concerns the target T4, Neuronal acetylcholine receptor subunit alpha-7 (Homo sapiens, UniProt P36544). Briefly: Antagonist activity at human alpha7 nAChR expressed in Xenopus laevis oocytes assessed as inhibition of ACh-induced current amplitude at -80 mV holding potential at 1 uM by two-electrode voltage clamp method. It is filed as cell-based. The note with it: Oocyte.
For data set [6], the target named is T3, Neuronal acetylcholine receptor; alpha3/beta4 (Homo sapiens). Kind of data set: Antagonist activity at human alpha3beta4 nAChR expressed in Xenopus laevis oocytes assessed as inhibition of ACh-induced current amplitude at -80 mV holding potential at 1 uM by two-electrode voltage clamp method. The note with it: Oocyte, filed as antagonist. The class given is cell-based.

For data set [7], the target named is Neuronal acetylcholine receptor subunit alpha-7 (Rattus norvegicus) (UniProt Q05941). Briefly: Inhibition of rat neuronal alpha7 nAChR expressed in Xenopus laevis oocytes assessed as inhibition of ACh-induced current amplitude at 1 uM by two-electrode voltage clamp method. The conditions noted are these: Oocyte, filed as antagonist. The class given is cell-based.
Sequence of Neuronal acetylcholine receptor subunit alpha-7 (Rattus norvegicus) (Q05941 whole entry): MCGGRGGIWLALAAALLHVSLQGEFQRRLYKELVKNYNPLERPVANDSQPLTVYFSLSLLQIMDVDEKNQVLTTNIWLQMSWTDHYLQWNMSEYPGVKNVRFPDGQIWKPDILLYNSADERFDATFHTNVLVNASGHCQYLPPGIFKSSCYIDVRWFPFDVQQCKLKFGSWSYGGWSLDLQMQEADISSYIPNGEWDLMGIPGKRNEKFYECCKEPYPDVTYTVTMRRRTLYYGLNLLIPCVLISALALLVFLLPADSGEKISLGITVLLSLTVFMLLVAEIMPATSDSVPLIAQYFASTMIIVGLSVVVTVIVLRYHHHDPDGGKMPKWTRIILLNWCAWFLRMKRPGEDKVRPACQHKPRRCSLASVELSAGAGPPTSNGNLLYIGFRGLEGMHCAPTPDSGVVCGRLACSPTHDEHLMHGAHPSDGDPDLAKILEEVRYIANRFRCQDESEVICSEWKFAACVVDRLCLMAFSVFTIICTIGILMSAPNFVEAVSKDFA

For data set [8], the target named is T1, Neuronal acetylcholine receptor; alpha3/beta2. Briefly: Antagonist activity at human alpha3beta2 nAChR expressed in Xenopus laevis oocytes assessed as inhibition of ACh-induced current amplitude at -80 mV holding potential at 1 uM by two-electrode voltage clamp method. The conditions noted are these: Oocyte. The class given is cell-based.
In data set [9] the target is T3, Neuronal acetylcholine receptor; alpha3/beta4 (Homo sapiens). Kind of data set: Antagonist activity at human alpha3beta4 nAChR expressed in Xenopus laevis oocytes assessed as inhibition of ACh-induced current amplitude at -80 mV holding potential in presence of BAPTA-AM at 10 uM by two-electrode voltage clamp method. It is filed as cell-based. The note with it: Oocyte, filed as antagonist.

For data set [10], the target named is T1, Neuronal acetylcholine receptor; alpha3/beta2. Kind of data set: Antagonist activity at human alpha3beta2 nAChR expressed in Xenopus laevis oocytes assessed as inhibition of ACh-induced current amplitude at -80 mV holding potential at 10 uM by two-electrode voltage clamp method. It is filed as cell-based. The conditions noted are these: Oocyte, filed as antagonist.

Data set [11] addresses T4, Neuronal acetylcholine receptor subunit alpha-7. Briefly: Antagonist activity at human alpha7 nAChR expressed in Xenopus laevis oocytes assessed as inhibition of ACh-induced current amplitude at -80 mV holding potential at 10 uM by two-electrode voltage clamp method. It is filed as cell-based. The note with it: Oocyte, filed as antagonist.
Data set [12] deals with T5, Neuronal acetylcholine receptor; alpha9/alpha10 (Homo sapiens) (UniProt Q9UGM1+Q9GZZ6). Kind of data set: Antagonist activity at human alpha9alpha10 nAChR expressed in Xenopus laevis oocytes assessed as inhibition of ACh-induced current amplitude at -80 mV holding potential at 1 uM by two-electrode voltage clamp method. It is filed as cell-based. The note with it: Oocyte.

The subject of another data set is Oocyte. Kind of data set: Antagonist activity at rat alpha9alpha10 nAChR expressed in Xenopus laevis oocytes assessed as inhibition of ACh-induced current amplitude at 10 uM by two-electrode voltage clamp method. It is filed as cell-based. The note with it: filed as antagonist.
The target in data set [13] is Neuronal acetylcholine receptor; alpha9/alpha10 (Homo sapiens, UniProt Q9GZZ6+Q9UGM1). Kind of data set: Antagonist activity at human alpha9alpha10 nAChR expressed in Xenopus laevis oocytes assessed as inhibition of ACh-induced current amplitude at -80 mV holding potential by two-electrode voltage clamp method. The class given is cell-based, Oocyte.
Sequence of Neuronal acetylcholine receptor; alpha9/alpha10 (Q9UGM1 whole entry): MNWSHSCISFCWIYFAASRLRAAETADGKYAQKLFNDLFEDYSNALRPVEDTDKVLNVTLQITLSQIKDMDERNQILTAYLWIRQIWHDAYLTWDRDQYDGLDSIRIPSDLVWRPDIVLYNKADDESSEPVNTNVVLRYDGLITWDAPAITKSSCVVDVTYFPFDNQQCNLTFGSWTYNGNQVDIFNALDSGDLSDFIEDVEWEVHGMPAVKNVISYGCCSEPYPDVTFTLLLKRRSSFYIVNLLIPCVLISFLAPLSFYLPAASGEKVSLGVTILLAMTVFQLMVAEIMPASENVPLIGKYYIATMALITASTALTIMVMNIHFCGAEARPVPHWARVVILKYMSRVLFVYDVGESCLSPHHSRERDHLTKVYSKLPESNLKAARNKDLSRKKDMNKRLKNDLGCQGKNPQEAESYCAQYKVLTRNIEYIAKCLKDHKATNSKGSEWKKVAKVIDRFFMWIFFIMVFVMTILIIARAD
Sequence of Neuronal acetylcholine receptor; alpha9/alpha10 (Q9GZZ6 whole entry): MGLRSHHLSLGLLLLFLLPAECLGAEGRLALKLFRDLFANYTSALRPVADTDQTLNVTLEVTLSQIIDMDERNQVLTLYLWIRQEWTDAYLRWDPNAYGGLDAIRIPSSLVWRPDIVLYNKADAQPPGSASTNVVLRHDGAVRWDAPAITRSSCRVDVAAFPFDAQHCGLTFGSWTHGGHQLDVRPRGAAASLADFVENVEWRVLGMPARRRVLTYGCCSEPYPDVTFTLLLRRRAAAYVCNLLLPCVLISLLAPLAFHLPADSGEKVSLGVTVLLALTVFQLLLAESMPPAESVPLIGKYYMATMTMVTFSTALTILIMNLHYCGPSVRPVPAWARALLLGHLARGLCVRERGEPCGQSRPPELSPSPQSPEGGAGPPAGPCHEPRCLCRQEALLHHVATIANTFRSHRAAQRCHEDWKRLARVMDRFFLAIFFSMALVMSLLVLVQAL
Data set [14] concerns the target T5, Neuronal acetylcholine receptor; alpha9/alpha10 (Homo sapiens). Briefly: Antagonist activity at human alpha9alpha10 nAChR expressed in Xenopus laevis oocytes assessed as inhibition of ACh-induced current amplitude at -80 mV holding potential at 10 uM by two-electrode voltage clamp method. The class given is cell-based. The note with it: Oocyte, filed as antagonist.

In data set [15] the target is T2, Neuronal acetylcholine receptor; alpha4/beta2 (Homo sapiens). Kind of data set: Antagonist activity at human alpha4beta2 nAChR expressed in Xenopus laevis oocytes assessed as inhibition of ACh-induced current amplitude at -80 mV holding potential at 1 uM by two-electrode voltage clamp method. It is filed as cell-based. The note with it: Oocyte, filed as antagonist.

The target in data set [16] is T1, Neuronal acetylcholine receptor; alpha3/beta2. Briefly: Antagonist activity at human alpha3beta2 nAChR expressed in Xenopus laevis oocytes assessed as inhibition of ACh-induced current amplitude at -80 mV holding potential in presence of BAPTA-AM at 10 uM by two-electrode voltage clamp method. The conditions noted are these: Oocyte, filed as antagonist. It is filed as cell-based.

Data set [17] addresses T5, Neuronal acetylcholine receptor; alpha9/alpha10 (Homo sapiens). Kind of data set: Antagonist activity at human alpha9alpha10 nAChR expressed in Xenopus laevis oocytes assessed as inhibition of ACh-induced current amplitude at -80 mV holding potential at 100 nM by two-electrode voltage clamp method. The class given is cell-based. The note with it: Oocyte.
The nature of data set [18]: Toxicity in mouse assessed as abnormal motor behavior. The note with it: in vivo.
For a further data set, the species on record is Rattus norvegicus. Briefly: Analgesic activity in chronic constriction injury-induced mechanical pain rat model assessed as increase in paw withdrawal latency measured after 24 hrs. The class given is functional, organism-based. The conditions noted are these: DDE = dose-dependent effect.
The subject of data set [19] is Mus musculus. Briefly: Analgesic activity in chronic constriction injury-induced mechanical pain mouse model assessed as increase in paw withdrawal latency at 2.5 ug/kg measured after 12 hrs. The class given is functional, organism-based. The note with it: dose 2.5 µg/kg.
For data set [20], the target named is T1, Neuronal acetylcholine receptor; alpha3/beta2. Briefly: Antagonist activity at human alpha3beta2 nAChR expressed in Xenopus laevis oocytes assessed as inhibition of ACh-induced current amplitude at -80 mV holding potential at 100 nM by two-electrode voltage clamp method. The class given is cell-based. The note with it: Oocyte, filed as antagonist.
Data set [21] concerns the target T4, Neuronal acetylcholine receptor subunit alpha-7. Briefly: Antagonist activity at human alpha7 nAChR expressed in Xenopus laevis oocytes assessed as inhibition of ACh-induced current amplitude at -80 mV holding potential in presence of BAPTA-AM by two-electrode voltage clamp method. It is filed as cell-based, Oocyte.
The subject of data set [22] is Mus musculus. Briefly: Analgesic activity in chronic constriction injury-induced mechanical pain mouse model assessed as increase in paw withdrawal latency at 25 ug/kg measured after 24 hrs. It is filed as functional, organism-based. The note with it: dose 25.0 µg/kg.
The target of data set [23] is T2, Neuronal acetylcholine receptor; alpha4/beta2 (Homo sapiens). Briefly: Antagonist activity at human alpha4beta2 nAChR expressed in Xenopus laevis oocytes assessed as inhibition of ACh-induced current amplitude at -80 mV holding potential in presence of BAPTA-AM at 100 nM by two-electrode voltage clamp method. The class given is cell-based. The note with it: Oocyte.

Data set [24] concerns the target T4, Neuronal acetylcholine receptor subunit alpha-7. Briefly: Antagonist activity at human alpha7 nAChR expressed in Xenopus laevis oocytes assessed as inhibition of ACh-induced current amplitude at -80 mV holding potential by two-electrode voltage clamp method. It is filed as cell-based, Oocyte.
Data set [25] has the same target. Briefly: Antagonist activity at human alpha7 nAChR expressed in Xenopus laevis oocytes assessed as inhibition of ACh-induced current amplitude at -80 mV holding potential at 100 nM by two-electrode voltage clamp method. The class given is cell-based. The conditions noted are these: Oocyte, filed as antagonist.
Data set [26] deals with T3, Neuronal acetylcholine receptor; alpha3/beta4 (Homo sapiens). Briefly: Antagonist activity at human alpha3beta4 nAChR expressed in Xenopus laevis oocytes assessed as inhibition of ACh-induced current amplitude at -80 mV holding potential at 100 nM by two-electrode voltage clamp method. The note with it: Oocyte. It is filed as cell-based.
The test system of data set [27] is Mus musculus. Kind of data set: Analgesic activity in chronic constriction injury-induced mechanical pain mouse model assessed as increase in paw withdrawal latency at 0.5 ug/kg measured after 12 hrs. It is filed as functional, organism-based. The note with it: dose 5.0 µg/kg.

The source made the active and inactive calls. The rule behind the calls is not given here. Positions of bridges follow the written chain, without caps; N, C: chain ends. Non-standard residues stand in square brackets, D forms with d. Residues, ends and D or L forms follow the SMILES beside them. ξ: configuration not given here. ξDap = NCC(N)C(=O)O

T4 sequence (P36544 whole entry): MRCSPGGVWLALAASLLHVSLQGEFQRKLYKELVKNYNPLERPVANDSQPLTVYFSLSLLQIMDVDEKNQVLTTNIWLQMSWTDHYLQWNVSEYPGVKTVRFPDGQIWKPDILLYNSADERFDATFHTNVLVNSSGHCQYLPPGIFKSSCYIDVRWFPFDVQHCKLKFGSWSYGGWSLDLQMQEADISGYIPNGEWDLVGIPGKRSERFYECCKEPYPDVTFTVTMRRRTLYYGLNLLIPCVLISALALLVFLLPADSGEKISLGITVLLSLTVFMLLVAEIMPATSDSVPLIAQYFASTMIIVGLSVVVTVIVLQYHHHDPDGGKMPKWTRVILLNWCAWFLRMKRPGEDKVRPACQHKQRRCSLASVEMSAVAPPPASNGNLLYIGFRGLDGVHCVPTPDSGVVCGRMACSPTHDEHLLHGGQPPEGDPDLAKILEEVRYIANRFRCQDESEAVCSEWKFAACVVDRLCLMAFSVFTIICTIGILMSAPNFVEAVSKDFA
T1 sequence (P17787 whole entry): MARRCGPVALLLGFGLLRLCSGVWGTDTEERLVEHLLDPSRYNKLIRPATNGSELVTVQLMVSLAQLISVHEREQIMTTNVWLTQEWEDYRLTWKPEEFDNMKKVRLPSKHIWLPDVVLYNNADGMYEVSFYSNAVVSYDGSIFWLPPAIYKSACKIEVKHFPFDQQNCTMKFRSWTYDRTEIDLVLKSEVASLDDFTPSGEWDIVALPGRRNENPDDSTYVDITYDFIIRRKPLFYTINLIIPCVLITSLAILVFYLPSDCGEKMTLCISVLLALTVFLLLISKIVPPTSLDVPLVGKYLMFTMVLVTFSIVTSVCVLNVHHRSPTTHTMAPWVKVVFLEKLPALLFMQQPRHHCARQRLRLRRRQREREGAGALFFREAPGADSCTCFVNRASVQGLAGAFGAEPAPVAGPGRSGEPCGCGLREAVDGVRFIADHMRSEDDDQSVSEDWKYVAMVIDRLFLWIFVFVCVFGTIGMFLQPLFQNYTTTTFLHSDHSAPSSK
T1 sequence (P32297 whole entry): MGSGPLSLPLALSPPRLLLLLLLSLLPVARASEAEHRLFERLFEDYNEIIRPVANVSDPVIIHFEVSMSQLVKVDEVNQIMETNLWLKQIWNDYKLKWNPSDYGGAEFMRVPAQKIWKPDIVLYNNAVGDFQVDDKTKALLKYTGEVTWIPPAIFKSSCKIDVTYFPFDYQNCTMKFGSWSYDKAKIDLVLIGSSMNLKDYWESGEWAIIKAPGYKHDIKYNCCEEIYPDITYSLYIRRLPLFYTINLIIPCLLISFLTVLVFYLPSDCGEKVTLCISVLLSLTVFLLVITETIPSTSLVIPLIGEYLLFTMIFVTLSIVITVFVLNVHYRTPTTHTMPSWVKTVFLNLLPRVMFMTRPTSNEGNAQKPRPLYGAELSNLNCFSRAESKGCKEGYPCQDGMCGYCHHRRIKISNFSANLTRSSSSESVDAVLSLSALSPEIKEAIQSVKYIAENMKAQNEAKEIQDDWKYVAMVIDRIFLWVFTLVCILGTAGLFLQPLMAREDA

`CC[C@H](C)[C@@H]1NC(=O)[C@H](CC(=O)O)NC(=O)[C@@H]2CCCN2C(=O)[C@H](CC(N)=O)NC(=O)[C@H](CC(N)=O)NC(=O)[C@H](C(C)C)NC(=O)[C@H](CO)NC(=O)[C@@H]2CSSC[C@H](NC(=O)CN)C(=O)N[C@@H](CSSC[C@@H](C(N)=O)NC1=O)C(=O)N[C@@H](CO)C(=O)N[C@@H](Cc1cnc[nH]1)C(=O)N1CCC[C@H]1C(=O)N[C@@H](C)C(=O)N2` (H-GCCSHPACSVNNPDIC-NH2; disulfide 2-8, 3-16): the IC50 (usually the midpoint of a concentration-inhibition curve) came out at 219 nM in [1], 8.3 nM in [3] and 92 nM in data set [13]. Also, the inhibition (commonly how much of the control response was suppressed) was 40% in data set [2]; more than 90% in [4]; 25% in data set [5]; 60% in data set [6]; 65% in data set [7]; 90% in data set [8]. The inhibition in [9] is 50%; in data set [10] it was more than 90%; in data set [11], 80%; in [12] (filed as antagonist), 95%; with Oocyte, 100%; in data set [14], more than 90%. Also, the inhibition in data set [16] amounted to 50%. The inhibition entry in data set [15] was “Active”.

Turning to `CC[C@H](C)[C@@H]1NC(=O)[C@H](CCC(=O)O)NC(=O)[C@@H]2CCCN2C(=O)[C@H](CC(N)=O)NC(=O)[C@H](CC(N)=O)NC(=O)[C@H](C(C)C)NC(=O)[C@H](CO)NC(=O)[C@@H]2CSSC[C@H](NC(=O)CN)C(=O)N[C@@H](CSSC[C@@H](C(N)=O)NC1=O)C(=O)N[C@@H](CO)C(=O)N[C@@H](Cc1cnc[nH]1)C(=O)N1CCC[C@H]1C(=O)N[C@@H](C)C(=O)N2` (H-GCCSHPACSVNNPEIC-NH2; disulfide 2-8, 3-16), the inhibition in data set [12] is 20%; in data set [12] (filed as antagonist), 40%.

With `CC[C@H](C)[C@@H]1NC(=O)[C@H](CC(=O)O)NC(=O)[C@@H]2CCCN2C(=O)[C@H](CC(N)=O)NC(=O)[C@H](CC(N)=O)NC(=O)[C@H](Cc2ccc(O)cc2)NC(=O)[C@H](CO)NC(=O)[C@@H]2CSSC[C@H](NC(=O)CN)C(=O)N[C@@H](CSSC[C@@H](C(N)=O)NC1=O)C(=O)N[C@@H](CO)C(=O)N[C@@H](Cc1cnc[nH]1)C(=O)N1CCC[C@H]1C(=O)N[C@@H](C)C(=O)N2` (H-GCCSHPACSYNNPDIC-NH2; disulfide 2-8, 3-16), the figures for the inhibition in [17] and in data set [12] were 25% and 20%, respectively.

`CC[C@H](C)[C@@H]1NC(=O)[C@H](CC(=O)O)NC(=O)[C@@H]2CCCN2C(=O)[C@H](CC(N)=O)NC(=O)[C@H](CC(N)=O)NC(=O)[C@H](C(C)C)NC(=O)[C@H](CO)NC(=O)[C@@H]2CSSC[C@H](NC(=O)CN)C(=O)N[C@@H](CSSC[C@@H](C(N)=O)NC1=O)C(=O)NC(CN)C(=O)N[C@@H](Cc1cnc[nH]1)C(=O)N1CCC[C@H]1C(=O)N[C@@H](C)C(=O)N2` (stereo partly drawn) (H-GCC[ξDap]HPACSVNNPDIC-NH2; disulfide 2-8, 3-16): the IC50 in data set [1] stood at 20.6 nM; in data set [3] it was 1.7 nM; in data set [21], 265 nM; in data set [24] it was 259 nM; in [13], 4 nM. The Activity entry is “Non-Toxic” in data set [18] and “Dde” in the data set listed under Rattus norvegicus. Besides, the outcome in the data set with Mus musculus [19], in the data set on Mus musculus [22] and with Mus musculus [27] was Active. The inhibition in data set [17] (filed as antagonist) is more than 85%; in [20], 85%; in data set [8] (filed as antagonist), more than 95%; in [23] it was 5%; in data set [25], 90%; in data set [26], 5%.

For `CC[C@H](C)[C@@H]1NC(=O)[C@H](CC(=O)O)NC(=O)[C@@H]2CCCN2C(=O)[C@H](CC(N)=O)NC(=O)[C@H](CC(N)=O)NC(=O)[C@H](C(C)C)NC(=O)C(CN)NC(=O)[C@@H]2CSSC[C@H](NC(=O)CN)C(=O)N[C@@H](CSSC[C@@H](C(N)=O)NC1=O)C(=O)NC(CN)C(=O)N[C@@H](Cc1cnc[nH]1)C(=O)N1CCC[C@H]1C(=O)N[C@@H](C)C(=O)N2` (stereo partly drawn) (H-GCC[ξDap]HPAC[ξDap]VNNPDIC-NH2; disulfide 2-8, 3-16), in [17] (filed as antagonist), the inhibition was more than 95%.
